These results are taken from publication PMC6563099, “Novel Thienopyrimidine Derivative, RP-010, Induces β-Catenin Fragmentation and Is Efficacious against Prostate Cancer Cells” (Cancers, 2019).

Test [1] relates to PC-3. Put plainly: Wound healing assay, PC-3. It is filed as cell-based. Conditions: 0.5, 1, 2 or 4 µM, 12-24 h, vs vehicle. On the procedure:
This assay was conducted using DU145 and PC-3 cells as previously described. Upon confluence, 200 μL sterile tips were used to create a wound by gently scratching the complete cell monolayer. Sterile PBS was used to wash the cells several times to remove any floating cells. Different concentrations of the test compound were prepared in the culture media and added immediately after wound formation. The closure of the wound was observed by taking pictures at different time points by the EVOS microscope (Thermo Fisher Scientific, Wayne, MI, USA). Finally, the area of the wounds, at different time points, was calculated using Image J software (NIH, Bethesda, MD, USA).

Test [2] relates to PC-3. Kind of test: Cell cycle analysis (PI, flow cytometry), PC-3. It is filed as cell-based. Conditions: 0.5, 1 or 2 µM. On the procedure: The effect of RP-010 on the cell cycle phases and function was determined using cell cycle analysis with PI staining, followed by flow cytometry. The cells were incubated with either vehicle or RP-010 (0.5, 1 or 2 µM) for 24 h. After incubation overnight, the cells were collected, washed and resuspended as an ice-cold PBS suspension. The DNA was stained with PI for at least 15 min on ice. A FACS Calibur flow cytometer from BD Biosciences (San Jose, CA, USA) was used to determine the distribution of the cells following incubation with vehicle or RP-010. Finally, the data were viewed and analysed using FlowJo v10.2 software from FlowJo LLC (Ashland, OR, USA).

A further test relates to CHO. Kind of test: MTT cytotoxicity assay, CHO cells. The class given is cell-based. Conditions: Cricetulus griseus, Chinese hamster ovarian cell line, means ± SDs of three independent experiments, read-out: IC50 ± SD, Non-Prostate Cells, CHO. On the procedure:
(§1) All the cells were cultured as adherent monolayers in culture flasks, and were used to determine the anti-cancer efficacy of RP-010. DMEM supplemented with 4.5 g of glucose, 10% fetal bovine serum (FBS) and 1% penicillin/streptomycin, was used to augment cell growth. Finally, the cells were incubated and grown in a humidified incubator containing 5% CO2 at 37 °C [50]. […] Cells were obtained from frozen stocks and cell passaging (up to P4) was performed at 80% cell confluency, using PBS and trypsin + 2.2-mM EDTA.
(§2) MTT assays were used to determine the cytotoxicity of the RP compounds, to PC cell lines, as previously described.

Test [3] has as its system DU145. Put plainly: Oxidative stress (H2DCFDA fluorescence), DU145. Conditions: 0.5, 1, 2 or 4 µM, 24 h, vs vehicle. The class given is cell-based. On the procedure: The compound 2′,7′-dichlorofluorescin (H2DCFDA) was used to detect changes in the oxidative stress status, as previously described in PC-3 and DU145. […] The cells were then washed 3 times with 1× PBS for 5 min each. The level of reactive oxygen species was then measured, based on the fluorescence level of oxidized H2DCFDA dye (excitation at 485 nm and emission at 535 nm), using an EVOS digital fluorescent microscope at 40×.

Test [4] concerns DU145. Kind of test: MTT cytotoxicity assay, DU145 prostate cancer cells. The class given is cell-based. The conditions noted are these: means ± SDs of three independent experiments, read-out: IC50 ± SD, Prostate Cancer Cells, DU145. How it is done:
as §1, §2

The subject of test [5] is DU145. Put plainly: Time-dependent cell confluence (live cell imaging), DU145. The class given is cell-based. On the procedure:
The cytotoxicity of RP-010, over time, was determined using DU145 cells. The cells were seeded and incubated as previously described. The DU145 cells were incubated with vehicle or RP-010 for 72 h. The pictures were taken over time, at a snapshot interval of 15 min, from the same spot of the flask using the CytoSMART™ Lux 10X system (LONZA biosciences Walkersville, MD, USA) for live cell imaging.

Test [6] has as its system PC-3. Kind of test: DAPI staining of nuclear changes, PC-3. The class given is cell-based. The conditions noted are these: 24 and 48 h. On the procedure:
(§3) The nuclear changes in DU145 and PC-3 cells lines produced by RP-010 (1, 2 and 4 µM) incubation at 24 or 48 h were determined using DAPI staining. The cells were seeded on culture cover glasses in 6-well plates, and allowed to grow overnight. The cells were then incubated with RP-010, for an additional 24 h, at 37 °C. The incubated cells were fixed with 4% paraformaldehyde, followed by permeabilization with 1× PBS/0.3% Triton X-100 for 25 min. Finally, DAPI stain was added, and cells were photographed using the EVOS microscope.

Test [7] relates to DU145. Put plainly: DAPI staining of nuclear changes, DU145. The class given is cell-based. On the procedure:
as §3

Test [8] has as its system PC-3. Kind of test: Colony formation assay, PC-3. It is filed as cell-based. Conditions: 1 or 2 µM, vs vehicle, p < 0.01. On the procedure: This assay was performed as previously described. The DU145 and PC-3 cells were incubated with RP-010 (1 or 2 µM) for 24 h. […], the medium was discarded and cells were trypsinized with 0.25% trypsin, 2.21-mM EDTA, and then harvested, counted, and reseeded in 6-well plates at a low density (500 cell/well). The cells were allowed to form colonies for 10–14 days at 37 °C, with the medium being changed every other day. Subsequently, methanol was used to fix the colonies formed in each plate, followed by staining the colonies with 0.1% crystal violet dye for 30 min. Finally, colonies were viewed and counted under an EVOS microscope (Themo Fisher Scientific, Wayne, MI, USA). The colony formation rate equation was applied for each compound: Colony formation rate = the number of colonies/numbers of seeded cells × 100%.

A further test has as its system CRL-1459. Kind of test: MTT cytotoxicity assay, CRL-1459 normal colon epithelial cells. It is filed as cell-based. The conditions noted are these: Homo sapiens, normal colon epithelial cell line, means ± SDs of three independent experiments, read-out: IC50 ± SD, Non-Prostate Cells, CRL-1459. How it is done:
as §1, §2

Another test concerns HCT116. The arrangement: method as in PMID 28759878. The conditions noted are these: colon cancer cell line; cited from earlier work.
Test [9] relates to PC-3. Kind of test: Transwell migration assay, PC-3. The class given is cell-based. The conditions noted are these: 24 h. On the procedure:
The assay was done as previously described. The effect of RP-010, (0.5, 1 or 2 µM) on the migration of PC cells was tested using 24 trans-well inserts with an […] pore size. The addition of the insert to the well forms two chambers (upper and lower), where the upper chamber was used to grow the cells on the porous membrane. The lower chamber was filled with 600-μL cell-free DMEM medium. 200-μL of the cell suspension was added to each insert, and cells allowed to attach for 1 h. The test compound was added in different concentrations and incubated with the cells for 24 h. […] Finally, the remaining migrated cells were fixed by methanol, and stained with 0.1% crystal violet dye and counted with an EVOS microscope. The number of migrated cells was counted for the cultures incubated with vehicle or RP-010.

Where two headings read alike, the source gives them in different places.

As to `COc1ccc(-c2nc3sc4c(c3c(=O)[nH]2)CCCC4)cc1` [RP10], in the test with PC-3 [1], the “Wound healing (cell migration)” value is on record as “significantly decreasing wound healing”. Further, in the test with PC-3 [2], the “Percentage of cells in G1” value is on record as “significant decrease”. Moreover, the “Percentage of cells in the G2 phase” value in the test on PC-3 [2] is “significant increase”. Further, the IC50 in the test on CHO was 14000 ± 1300 nM; in the test on DU145 [4] (Homo sapiens, DU-145, MTT assay), < 1000 nM; in the test with DU145 [4] (MTT assay), 500 ± 200 nM; in the test on CRL-1459 it was 73000 ± 5300 nM; with HCT116, 600 ± 300 nM. Besides, the “Reactive oxygen species (ROS) level” value in the test on DU145 [3] is given as “significantly higher levels”. Also, the “Cell growth over time (confluence)” value is reported as “significantly decreased” in the test on DU145 [5] (0.5 µM, after 24 h of incubation, p < 0.05) and “significantly decreased” in the test on DU145 [5] (1 µM, after 12 h of incubation, p < 0.01). Besides, the “Nuclear morphology (DAPI)” value in the test with PC-3 [6] (1 µM) is “significant increase in multinucleated cells”; in the test on PC-3 [6] (2 or 4 μM), “apoptosis”; in the test on DU145 [7] (1 µM, 24 h), “produced multinucleated cells”; in the test on DU145 [7] (1, 2 or 4 µM, 48 h), “primarily produced early stage apoptotic nuclear morphology”; in the test on DU145 [7] (2 or 4 µM, 24 h), “significantly increased numbers of highly condensed, fragmented nuclear chromatin”. In addition, in the test on PC-3 [8], the Colony formation rate entry is recorded as “significantly decreased”. Besides, the Transwell migration entry with PC-3 [9] (0.5 μM) was “not significantly altered”; with PC-3 [9] (1 or 2 μM, p < 0.05) it was “significantly decreased”.
